In one data set the test system is normal beagle dogs. Briefly: Pharmacodynamic activity: systolic blood pressure decrease in telemetered dogs after oral dose. It is filed as in vivo, dog. The conditions noted are these: beagle dogs (n=3), single oral dose 30 mg/kg in PEG300, first 2 hr post-dose relative to baseline SBP. On the procedure: The effect of certain compounds from Table 1 on blood pressure in freely moving telemetered normal beagle dogs (n=3) after single oral doses was evaluated. The animals were surgically implanted with a pressure transducer equipped telemetry transmitter. The transmitter assembly was secured internally and a fluid-filled catheter was placed into the abdominal aorta to allow for collection of cardiovascular data. To evaluate cardiovascular effects, 3 dogs were given single oral doses of a compound from Table 1 (100% PEG300 in gelatin capsules) at a concentration of 100 mg/mL and at doses of 30 mg/kg. Systemic blood pressure and heart rate were evaluated continuously for 2 hr before and for 24 hr after dosing (results not shown). To compare the pharmacodynamic activity for all tested compounds, the mean systolic blood pressure (SBP) decrease during the first 2 hr post-dose was determined relative to the baseline SBP (30-120 min pre-dose) (Table 6).

Data set [1] is described as follows: In vitro plasma stability, dog plasma. Format: in vitro ADME. Particulars: male, pH 7.4, 5 μM, 37° C., sampling 0-360 minutes, read-out: T1/2 Dog. The method, boiled down: (§1)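 Pooled plasma at pH 7.4 with sodium heparin or citrate anticoagulant; compound at 5 μM, 37° C with shaking, triplicate samples at 0–360 min. Quenched in acetonitrile/1% formic acid with internal standard; LC-MS/MS peak-area ratios without standard curve; T1/2 from percent remaining.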

Data set [2] in a line: In vitro plasma stability, rat plasma. Particulars: male, pH 7.4, 5 μM, 37° C., sampling 0-360 minutes, read-out: T1/2 Rat. Format: in vitro ADME. The method, boiled down: as §1
The nature of data set [3]: In vitro plasma stability, human plasma. It is filed as in vitro ADME. The conditions noted are these: male, pH 7.4, 5 μM, 37° C., sampling 0-360 minutes, read-out: T1/2 Human. The method, boiled down: as §1

As to `CN1N=C(c2ccc(C(F)(F)F)cc2)C(C)(NO)C1=O` (centres unmarked) [Compound 4, 4-(hydroxyamino)-2,4-dimethyl-5-(4-(trifluoromethyl)phenyl)-2,4-dihydro-3H-pyrazol-3-one], the “Mean SBP decrease” value with normal beagle dogs was 6 mmHg. For the same compound, the half-life at 5 μM in data set [1] came to 69 min; in data set [2], 38 min; in data set [3], 31 min.
Take `CN1N=C(c2ccc(S(=O)(=O)C(F)(F)F)cc2)C(C)(NO)C1=O` (centres unmarked) [Compound 34, 4-(hydroxyamino)-2,4-dimethyl-5-(4-((trifluoromethyl)sulfonyl)phenyl)-2,4-dihydro-3H-pyrazol-3-one]: the “Mean SBP decrease” value with normal beagle dogs turned out to be 18 mmHg. Also, the half-life at 5 μM stood at 25 min in data set [1], 28 min in data set [2] and 36 min in data set [3].
On to `CN1N=C(c2ccc(S(C)(=O)=O)c(F)c2)C(C)(NO)C1=O` (centres unmarked) [Compound 40, 5-(3-fluoro-4-(methylsulfonyl)phenyl)-4-(hydroxyamino)-2,4-dimethyl-2,4-dihydro-3H-pyrazol-3-one], for which the “Mean SBP decrease” value in the data set with normal beagle dogs turned out to be 15 mmHg. The half-life at 5 μM in data set [1] came to 48 min; in data set [2], 39 min; in data set [3] it was 39 min.
On to `CN1N=C(c2cccc(S(C)(=O)=O)c2)C(C)(NO)C1=O` (centres unmarked) [Compound 48, 4-(hydroxyamino)-2,4-dimethyl-5-(3-(methylsulfonyl)phenyl)-2,4-dihydro-3H-pyrazol-3-one], for which the “Mean SBP decrease” value in the data set with normal beagle dogs stood at 17 mmHg. For the same compound, the half-life at 5 μM in data set [1] was found to be 49 min; in data set [2], 53 min; in data set [3], 49 min.
As to `CN1N=C(c2ccc(S(=O)(=O)N(C)C)cc2)C(C)(NO)C1=O` (centres unmarked) [Compound 49, 4-(4-(hydroxyamino)-1,4-dimethyl-5-oxo-4,5-dihydro-1H-pyrazol-3-yl)-N,N-dimethylbenzenesulfonamide], the “Mean SBP decrease” value with normal beagle dogs was 18 mmHg. Moreover, the half-life at 5 μM worked out at 39 min in data set [1], 70 min in data set [2] and 52 min in data set [3].
For `CN1N=C(c2ccc(S(C)(=N)=O)cc2)C(C)(NO)C1=O` (centres unmarked) [Compound 75, 4-(Hydroxyamino)-3-{4-[imino(methyl)oxo-λ^6-sulfanyl]phenyl}-1,4-dimethyl-4,5-dihydro-1H-pyrazol-5-one] the same measures were 12 mmHg, 47 min, 113 min and 49 min.
With `CC(C)S(=O)(=O)c1ccc(C2=NN(C)C(=O)C2(C)NO)cc1` (centres unmarked) [Compound 78, 4-(Hydroxyamino)-1,4-dimethyl-3-[4-(propane-2-sulfonyl)phenyl]-4,5-dihydro-1H-pyrazol-5-one], in the data set on normal beagle dogs, the “Mean SBP decrease” value amounted to 27 mmHg. The values for the half-life at 5 μM in data set [1], in data set [2] and in data set [3] were 42 min, 75 min and 43 min, respectively.
For `CN1N=C(c2ccc(S(=O)(=O)N3CCOCC3)cc2)C(C)(NO)C1=O` (centres unmarked) [Compound 80, 4-(Hydroxyamino)-1,4-dimethyl-3-[4-(morpholine-4-sulfonyl)phenyl]-4,5-dihydro-1H-pyrazol-5-one] the same measures were 13 mmHg, 49 min, 80 min and 46 min.
For `CN(C)C(=O)c1ccc(C2=NN(C)C(=O)C2(C)NO)cc1` (centres unmarked) [Compound 84, 4-[4-(Hydroxyamino)-1,4-dimethyl-5-oxo-4,5-dihydro-1H-pyrazol-3-yl]-N,N-dimethylbenzamide] the same measures were 15 mmHg, 100 min, 161 min and 89 min.
For `CCO/N=C(\C)C1(NO)C(=O)N(C)N=C1C(C)(C)C` (centres unmarked) [Compound 112, 3-tert-Butyl-4-[1-(ethoxyimino)ethyl]-4-(hydroxyamino)-1-methyl-4,5-dihydro-1H-pyrazol-5-one] the same measures were 21 mmHg, 21 min, 19 min and 10 min.
Take `CN1N=C(C(C)(C)C)C(NO)(c2ccccc2)C1=O` (centres unmarked) [Compound 113, 3-tert-Butyl-4-(hydroxyamino)-1-methyl-4-phenyl-4,5-dihydro-1H-pyrazol-5-one]: the “Mean SBP decrease” value in the data set on normal beagle dogs is 18 mmHg. The results for the half-life at 5 μM in data set [1], in data set [2] and in data set [3] were 75 min, 53 min and 30 min, respectively.
On to `CN(C)C(=O)c1ccc(C2(NO)C(=O)N(C)N=C2C(C)(C)C)cc1` (centres unmarked) [Compound 124, 4-[3-tert-Butyl-4-(hydroxyamino)-1-methyl-5-oxo-4,5-dihydro-1H-pyrazol-4-yl]-N,N-dimethylbenzamide], for which the half-life at 5 μM in data set [1] amounted to 45 min; in data set [2], 44 min; in data set [3] it was 31 min.
With `CCOC1=NN(C)C(=O)C1(NO)/C(C)=N/OCc1ccccc1` (centres unmarked) [Compound 125, 4-[1-[(Benzyloxy)imino]ethyl]-3-ethoxy-4-(hydroxyamino)-1-methyl-4,5-dihydro-1H-pyrazol-5-one], the half-life at 5 μM in data set [1] is 13 min; in data set [2], 15 min; in data set [3], 10 min.
For `CCOC1=NN(C)C(=O)C1(NO)/C(C)=N/OC` (centres unmarked) [Compound 126, 3-Ethoxy-4-(hydroxyamino)-4-[1-(methoxyimino)ethyl]-1-methyl-4,5-dihydro-1H-pyrazol-5-one] the same measures were 30 min, 18 min and 18 min.
For `CCOC1=NN(c2ccccc2)C(=O)C1(C)NO` (centres unmarked) [Compound 127, 3-Ethoxy-4-(hydroxyamino)-4-methyl-1-phenyl-4,5-dihydro-1H-pyrazol-5-one] the same measures were over 480 min, over 480 min and over 480 min.
For `CO/N=C(\C)C1(NO)C(=O)N(c2ccccc2)N=C1[S+]([O-])c1ccccc1` (centres unmarked) [Compound 130, 3-(Benzenesulfinyl)-4-(hydroxyamino)4[1-(methoxyimino)ethyl]-1-phenyl-4,5-dihydro1H-pyrazol-5-one] the same measures were under 1 min, under 1 min and under 1 min.
Take `CO/N=C(\C)C1(NO)C(=O)NN=C1C(C)(C)C` (centres unmarked) [Compound 131, 3-tert-Butyl-4-(hydroxyamino)-4-[1-(methoxyimino)ethyl]-4,5-dihydro-1H-pyrazol-5-one]: the results for the half-life at 5 μM in data set [1], in data set [2] and in data set [3] were 7 min, 24 min and 15 min, respectively.
On to `CC1=NN(C)C(=O)C1(NO)c1noc(-c2ccccc2)n1` (centres unmarked) [Compound 132, 4-(Hydroxyamino)-1,3-dimethyl-4-(5-phenyl-1,2,4-oxadiazol-3-yl)-4,5-dihydro-1H-pyrazol-5-one], for which the half-life at 5 μM in data set [1], in data set [2] and in data set [3] was under 1 min throughout.
In the case of `CC1(NO)C(=O)NN=C1c1ccc(S(C)(=O)=O)cc1` (centres unmarked) [Compound 133, 4-(Hydroxyamino)-3-(4-methanesulfonylphenyl)-4-methyl-4,5-dihydro-1H-pyrazol-5-one], the values for the half-life at 5 μM in data set [1], in data set [2] and in data set [3] were 126 min, 116 min and 110 min, respectively.
For `CCO/N=C(\C)C1(NO)C(=O)NN=C1C(C)(C)C` (centres unmarked) [Compound 134, 3-tert-Butyl-4-[1-(ethoxyimino)ethyl]-4-(hydroxyamino)-4,5-dihydro-1H-pyrazol-5-one] the same measures were 26 min, 20 min and 17 min.

The values are drawn from patent US9682938B2, “Pyrazolone derivatives as nitroxyl donors” (Cardioxyl Pharmaceuticals, Inc., priority 2014, dated 2017).
